The assay deals with T1, HPK1 (Homo sapiens, UniProt Q92918).
T1 construct: purchased Invitrogen
T1 sequence (Q92918 whole entry): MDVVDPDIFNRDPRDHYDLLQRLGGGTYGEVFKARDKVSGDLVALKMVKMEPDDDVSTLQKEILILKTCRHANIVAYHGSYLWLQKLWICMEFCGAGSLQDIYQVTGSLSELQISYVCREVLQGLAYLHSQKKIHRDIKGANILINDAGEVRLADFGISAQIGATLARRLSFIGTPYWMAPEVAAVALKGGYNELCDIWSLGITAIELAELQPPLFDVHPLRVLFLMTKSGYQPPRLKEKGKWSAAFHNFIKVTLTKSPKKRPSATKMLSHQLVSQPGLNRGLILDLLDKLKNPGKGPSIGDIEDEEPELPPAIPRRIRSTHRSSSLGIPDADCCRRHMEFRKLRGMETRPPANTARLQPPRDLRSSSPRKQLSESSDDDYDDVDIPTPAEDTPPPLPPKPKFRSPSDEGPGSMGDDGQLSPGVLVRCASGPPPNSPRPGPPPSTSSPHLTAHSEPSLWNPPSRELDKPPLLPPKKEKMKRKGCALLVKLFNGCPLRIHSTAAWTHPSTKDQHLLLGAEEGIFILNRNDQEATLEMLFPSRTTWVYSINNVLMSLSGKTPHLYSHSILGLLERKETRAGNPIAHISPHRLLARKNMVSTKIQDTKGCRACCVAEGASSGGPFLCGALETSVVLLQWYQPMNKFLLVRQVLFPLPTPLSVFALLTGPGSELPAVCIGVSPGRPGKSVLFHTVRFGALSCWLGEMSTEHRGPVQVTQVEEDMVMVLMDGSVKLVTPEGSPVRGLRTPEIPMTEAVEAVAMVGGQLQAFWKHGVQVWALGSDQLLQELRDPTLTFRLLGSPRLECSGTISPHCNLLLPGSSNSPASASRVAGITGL
Nature of the assay: HPK1 biochemical enzyme assay (microfluidic mobility shift assay). Particulars: 1000 uM (1 mM) ATP; Caliper mobility shift; 1.5 nM HPK1; 30 min preincubation; read-out: HPK1 1000UMATP caliper IC50. Summed up: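 Microfluidic mobility-shift readout with 1.5 nM HPK1 in pH 7.4 buffer; compounds (ten-point curves, top 3 μM final) preincubated 30 min with enzyme/substrate. Reaction started with 1 mM ATP and 1 μM substrate plus 5 mM MgCl2, run 60 min at RT. IC50 values binned into activity classes.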
Consider `CCC1(C(=O)Nc2ccc(-c3cc(Nc4ccc(N5CCNCC5)cn4)c4c(=O)[nH]ccc4n3)c(F)c2)CCC1` [I-240, 1-ethyl-N-[3-fluoro-4-[5-oxo-4-[(5-piperazin-1-yl-2-pyridyl)amino]-6H-1,6-naphthyridin-2-yl]phenyl] cyclobutane carboxamide], for which the IC50 fell in the range of 100 to 1000 nM.

As to `COc1cc(-c2cc(Nc3ccc(N4CCC(O)CC4)cn3)c3c(=O)[nH]ccc3n2)c(F)c(F)c1C(=O)N1CCCCC1` [I-241, 2-[2,3-difluoro-5-methoxy-4-(piperidine-1-carbonyl)phenyl]-4-[[5-(4-hydroxy-1-piperidyl)-2-pyridyl]amino]-6H-1,6-naphthyridin-5-one], the half-inhibitory concentration (IC50) was in the range of 100 to 1000 nM.

Take `COc1cc(-c2cc(Nc3ccc(C#N)cn3)c3c(=O)[nH]ccc3n2)c(F)cc1C(=O)N1CCCCC1` [I-242, 6-[[2-[2-fluoro-5-methoxy-4-(piperidine-1-carbonyl)phenyl]-5-oxo-6H-1,6-naphthyridin-4-yl]amino] pyridine-3-carbonitrile]: the IC50 fell in the range of 100 to 1000 nM.

Take `O=c1[nH]ccc2nc(-c3cc(C4CCCN4)ccc3F)cc(Nc3ccc(N4CCC(O)CC4)cn3)c12` (stereo not drawn) [I-243, 2-(2-fluoro-5-pyrrolidin-2-yl-phenyl)-4-[[5-(4-hydroxy-1-piperidyl)-2-pyridyl]amino]-6H-1,6-naphthyridin-5-one]: the IC50 was in the range of 100 to 1000 nM.

`CN(C)C1CCc2cc(F)c(-c3cc(Nc4ccc(N5CCC(O)CC5)cn4)c4c(=O)[nH]ccc4n3)cc21` (stereo not drawn) [I-244, 2-[3-(dimethyl-amino)-6-fluoro-indan-5-yl]-4-[[5-(4-hydroxy-1-piperidyl)-2-pyridyl]amino]-6H-1,6-naphthyridin-5-one]: the IC50 was ≤ 100 nM.

On to `COc1cc(-c2cc(Nc3ccc(C4CCNCC4)cn3)c3c(=O)[nH]ccc3n2)c(F)cc1C(=O)N1CCCCC1` [I-245, 2-[2-fluoro-5-methoxy-4-(piperidine-1-carbonyl)phenyl]-4-[[5-(4-piperidyl)-2-pyridyl]amino]-6H-1,6-naphthyridin-5-one], for which the concentration for half-maximal inhibition (IC50) is ≤ 100 nM.

`CCC1(C(=O)N(C)c2ccc(-c3cc(Nc4ccc(N5CCNCC5)cn4)c4c(=O)[nH]ccc4n3)c(F)c2)CCC1` [I-247, 1-ethyl-N-[3-fluoro-4-[5-oxo-4-[(5-piperazin-1-yl-2-pyridyl)amino]-6H-1,6-naphthyridin-2-yl]phenyl]-N-methyl-cyclobutane-carboxamide]: the 50% inhibitory concentration (IC50) was ≤ 100 nM.

On to `CC(=O)N1CCCC1c1ccc(F)c(-c2cc(Nc3ccc(N4CCC(O)CC4)cn3)c3c(=O)[nH]ccc3n2)c1` (stereo not drawn) [I-248, 2-[5-(1-acetyl-pyrrolidin-2-yl)-2-fluoro-phenyl]-4-[[5-(4-hydroxy-1-piperidyl)-2-pyridyl]amino]-6H-1,6-naphthyridin-5-one], for which the IC50 was ≤ 100 nM.

As to `O=c1[nH]ccc2nc(-c3cc4c(cc3F)CCC4N3CCCCC3)cc(Nc3ccc(N4CCC(O)CC4)cn3)c12` (stereo not drawn) [I-249, 2-[6-fluoro-3-(1-piperidyl)indan-5-yl]-4-[[5-(4-hydroxy-1-piperidyl)-2-pyridyl]amino]-6H-naphthyridin-5-one], the 50% inhibitory concentration (IC50) was ≤ 100 nM.

In the case of `O=c1[nH]ccc2nc(-c3cc(CN4CC5(COC5)C4)ccc3F)cc(Nc3ccc(N4CCC(O)CC4)cn3)c12` [I-250], the IC50 was ≤ 100 nM.

On to `COc1cc(-c2cc(Nc3ccc(N4CCC(O)CC4)cn3)c3c(=O)[nH]ccc3n2)c(F)cc1C(=O)N1CC2C(C1)C2(F)F` (stereo not drawn) [I-251, 2-[4-(6,6-difluoro-3-azabicyclo [3.1.0]hexane-3-carbonyl)-2-fluoro-5-methoxy-phenyl]-4-[[5-(4-hydroxy-1-piperidyl)-2-pyridyl]amino]-6H-1,6-naphthyridin-5-one], for which the IC50 was ≤ 100 nM.

Turning to `O=c1[nH]ccc2nc(-c3cc(CN4CC5(CCCO5)C4)ccc3F)cc(Nc3ccc(N4CCC(O)CC4)cn3)c12` [I-255, 2-[2-fluoro-5-(5-oxa-2-azaspiro [3.4]octan-2-ylmethyl)phenyl]-4-[[5-(4-hydroxy-1-piperidyl)-2-pyridyl]amino]-6H-1,6-naphthyridin-5-one], the IC50 is > 1000 nM.

With `O=c1[nH]ccc2nc(-c3cc(CN4CC5(CCOC5)C4)ccc3F)cc(Nc3ccc(N4CCC(O)CC4)cn3)c12` [I-256, 2-[2-fluoro-5-(6-oxa-2-azaspiro [3.4]octan-2-ylmethyl)phenyl]-4-[[5-(4-hydroxy-1-piperidyl)-2-pyridyl]amino]-6H-1,6-naphthyridin-5-one], the IC50 was > 1000 nM.

Turning to `O=c1[nH]ccc2nc(-c3ccc(OCc4ccncc4)cc3F)cc(Nc3cc(C4CCOC4)n[nH]3)c12` (stereo not drawn) [I-257, 2-[2-fluoro-4-(4-pyridyl-methoxy)phenyl]-4-[(3-THF-3-yl-1H-pyrazol-5-yl)amino]-6H-1,6-naphthyridin-5-one], the IC50 was > 1000 nM.

Take `O=c1[nH]ccc2nc(-c3cc4c(cc3F)CCC4N3CC4(CCC4)C3)cc(Nc3ccc(N4CCC(O)CC4)cn3)c12` (stereo not drawn) [I-258, 2-[3-(2-azaspiro [3.3]heptan-2-yl)-6-fluoro-indan-5-yl]-4-[[5-(4-hydroxy-1-piperidyl)-2-pyridyl]amino]-6H-1,6-naphthyridin-5-one]: the IC50 was in the range of 100 to 1000 nM.

For the compound `O=c1[nH]ccc2nc(-c3cc4c(cc3F)C(N3CCOCC3)CC4)cc(Nc3ccc(N4CCC(O)CC4)cn3)c12` (stereo not drawn) [I-259, 2-(6-fluoro-1-morphoino-indan-5-y)-4-[[5-(4-hydroxy-1-piperidy)-2-pyridy]amino]-6H-1,6-naphthyridin-5-one], the 50% inhibitory concentration (IC50) was ≤ 100 nM.

Turning to `O=c1[nH]ccc2nc(-c3cc4c(cc3F)CCC4N3CC4(CCOC4)C3)cc(Nc3ccc(N4CCC(O)CC4)cn3)c12` (stereo not drawn) [I-260, 2-[6-fluoro-3-(6-oxa-2-azaspiro [3.4]octan-2-yl)indan-5-yl]-4-[[5-(4-hydroxy-1-piperidyl)-2-pyridyl]amino]-6H-1,6-naphthyridin-5-one], the IC50 was 100 to 1000 nM.

Turning to `CNC(C)(c1ccc(F)c(-c2cc(Nc3ccc(N4CCC(O)CC4)cn3)c3c(=O)[nH]ccc3n2)c1)C(F)(F)F` (stereo not drawn) [I-263, 2-[2-fluoro-5-[2,2,2-trifluoro-1-methyl-1-(methyl-amino)ethyl]phenyl]-4-[[5-(4-hydroxy-1-piperidyl)-2-pyridyl]amino]-6H-1,6-naphthyridin-5-one], the half-maximal inhibitory concentration (IC50) is ≤ 100 nM.

`O=C(c1ccc(-c2cc(Nc3ccc(N4CCNCC4)cn3)c3c(=O)[nH]ccc3n2)c(F)c1)N1CC2CCC1CC2` [I-264, 2-[4-(3-azabicyclo [2.2.2]octane-3-carbonyl)-2-fluoro-phenyl]-4-[(5-piperazin-1-yl-2-pyridyl)amino]-6H-1,6-naphthyridin-5-one]: the IC50 is ≤ 100 nM.

As to `O=c1[nH]ccc2nc(-c3c(F)ccc4c3CCNC4)cc(Nc3cc(C4CCOC4)n[nH]3)c12` (stereo not drawn) [I-265, 2-(6-fluoro-1,2,3,4-tetrahydro-isoquinolin-5-yl)-4-[(3-THF-3-yl-1H-pyrazol-5-yl)amino]-6H-1,6-naphthyridin-5-one], the 50% inhibitory concentration (IC50) is ≤ 100 nM.

As to `CN1CCc2c(ccc(F)c2-c2cc(Nc3ccc(N4CCC(O)CC4)cn3)c3c(=O)[nH]ccc3n2)C1` [I-268, 2-(6-fluoro-2-methyl-3,4-dihydro-1H-isoquinolin-5-yl)-4-[[5-(4-hydroxy-1-piperidyl)-2-pyridyl]amino]-6H-1,6-naphthyridin-5-one], the concentration for half-maximal inhibition (IC50) was > 1000 nM.

With `O=C(c1cc(F)c(-c2cc(Nc3ccc(N4CCC(O)CC4)cn3)c3c(=O)[nH]ccc3n2)cc1C1CC1)N1CCCCC1` [I-270, 2-[5-cyclopropyl-2-fluoro-4-(piperidine-1-carbonyl)phenyl]-4-[[5-(4-hydroxy-1-piperidyl)-2-pyridyl]amino]-6H-naphthyridin-5-one], the IC50 was ≤ 100 nM.

For the compound `Cn1ccnc1N1CCN(c2cc(Nc3ccc(N4CCC(O)CC4)cn3)c3c(=O)[nH]ccc3n2)CC1` [I-271, 4-[[5-(4-hydroxy-1-piperidyl)-2-pyridyl]amino]-2-[4-(1-methyl-imidazol-2-yl)piperazin-1-yl]-6H-1,6-naphthyridin-5-one], the IC50 is ≤ 100 nM.

Regarding `O=c1[nH]ccc2nc(-c3ccc(C4CCCO4)cc3F)cc(Nc3ccc(N4CCC(O)CC4)cn3)c12` (stereo not drawn) [I-276, 2-(2-fluoro-4-THF-2-yl-phenyl)-4-[[5-(4-hydroxy-1-piperidyl)-2-pyridyl]amino]-6H-1,6-naphthyridin-5-one], the IC50 is > 1000 nM.

Turning to `CN1CCN(c2ccc(Nc3cc(-c4ccc(C(=O)N5CC6CCC5CC6)cc4F)nc4cc[nH]c(=O)c34)nc2)CC1` [I-278, 2-[4-(3-azabicyclo [2.2.2]octane-3-carbonyl)-2-fluoro-phenyl]-4-[[5-(4-methyl-piperazin-1-yl)-2-pyridyl]amino]-6H-1,6-naphthyridin 5-one], the IC50 lay within 100 to 1000 nM.

Turning to `CN1CCN(c2ccc(Nc3cc(-c4ccc(C(=O)N5CC6C(C5)C6(F)F)cc4F)nc4cc[nH]c(=O)c34)nc2)CC1` (stereo not drawn) [I-279, 2-[4-(6,6-difluoro-3-azabicyclo [3.1.0]hexane-3-carbonyl)-2-fluoro-phenyl]-4-[[5-(4-methyl-piperazin-1-yl)-2-pyridyl]amino]-6H-1,6-naphthyridin-5-one], the 50% inhibitory concentration (IC50) is ≤ 100 nM.

Take `Cc1cnccc1-c1cc(Nc2ccc(N3CCC(O)CC3)cn2)c2c(=O)[nH]ccc2n1` [I-280, 4-[[5-(4-hydroxy-1-piperidyl)-2-pyridyl]amino]-2-(3-methyl-4-pyridyl)-6H-1,6-naphthyridin-5-one]: the 50% inhibitory concentration (IC50) was > 1000 nM.

On to `Cc1ccncc1-c1cc(Nc2ccc(N3CCC(O)CC3)cn2)c2c(=O)[nH]ccc2n1` [I-281, 4-[[5-(4-hydroxy-1-piperidyl)-2-pyridyl]amino]-2-(4-methyl-3-pyridyl)-6H-1,6-naphthyridin-5-one], for which the IC50 is ≤ 100 nM.

`O=c1[nH]ccc2nc(-c3ccnc4[nH]ccc34)cc(Nc3ccc(N4CCC(O)CC4)cn3)c12` [I-282, 4-[[5-(4-hydroxy-1-piperidyl)-2-pyridyl]amino]-2-(1H-pyrrolo [2,3-b]pyridin-4-yl)-6H-1,6-naphthyridin-5-one]: the IC50 is > 1000 nM.

For the compound `Cc1c[nH]nc1-c1cc(Nc2ccc(N3CCC(O)CC3)cn2)c2c(=O)[nH]ccc2n1` [I-283, 4-[[5-(4-hydroxy-1-piperidyl)-2-pyridyl]amino]-2-(4-methyl-1H-pyrazol-3-yl)-6H-1,6-naphthyridin-5-one], the IC50 is ≤ 100 nM.

As usually defined, the IC50 is the concentration needed to halve the response being measured.

(Values after patent publication US12252488B2 (Nimbus Saturn, Inc., priority 2021, dated 2025).)
